Source: patent EP2914280B1, “SOMATOSTATIN-DOPAMINE CHIMERIC ANALOGS” (IPSEN PHARMA S.A.S., priority 2012, dated 2014)
Like-named read-outs stand apart in the source and are kept apart here. Numbered stars: 1 amine (or outer) side, 2 acyl side, 3 side chain; on linkers, the order of the positions; unused ones are H or OH. Bridge positions count the residues as written; N and C are the ends. Square brackets hold non-standard residues; d marks the D form. Peptide text beside a SMILES is read from it. * marks the point of attachment. X1 = CN1C[C@H](CSCCN(CCSC[C@@H]2C[C@@H]3c4cccc5[nH]cc(c45)C[C@H]3N(C)C2)[C@H](CCCCN[*:2])C(=O)[*:1])C[C@@H]2c3cccc4[nH]cc(c34)C[C@H]21; X2 = CN1C[C@H](CSCC(=O)*)C[C@@H]2c3cccc4[nH]cc(c34)C[C@H]21; Phe(4-F) = N[C@@H](Cc1ccc(F)cc1)C(=O)O; 4Pal = N[C@@H](Cc1ccncc1)C(=O)O

Legend:
hSSTR1 = target: T1, hSSTR1 (Homo sapiens, UniProt P30872); test: Somatostatin receptor radioligand binding assay (hSSTR1)
T1 construct: expressed in transfected cells; host or cells: CHO-K1 (ATCC), pcDNA3.1, G418-selected clonal line; membranes
Procedure: (§1) The affinities of a test compound for the human somatostatin receptors were determined by radioligand binding assays in CHO-K1 cells stably transfected with each of the human somatostatin receptor subtypes, hSSTR1-5. […] Clonal cell lines stably expressing each of the somatostatin receptors were obtained by transfection into CHO-K1 cells (ATCC) and subsequently selected with culture media containing 0.8 mg/mL of G418 (Life Technologies).
(§2) Membranes for in vitro receptor binding assays were obtained by the following procedures. […] The supernatant containing the plasma membranes was centrifuged at 100,000 x g for 30 minutes and the pellet was resuspended in buffer containing 20 mM glycine-glycine, 1 mM MgCl2, 250 mM sucrose, pH 7.2, for storage at -80°C.
(§3) For the SSTR1, 2 and 5 assays, membranes and various concentrations of test compounds were incubated in 96-well plates for 60 minutes at 25°C with 0.05 nM [^125I-Tyr^11]-SRIF-14 (for hSSTR1; PerkinElmer Life Science), 0.05 nM [^125I-Tyr]-seglitide (for hSSTR2; PerkinElmer Life Science) or 0.05 nM [^125I-Tyr]-[DPhe-cyclo(Cys-Tyr-DTrp-Lys-Val-Cys)-Thr-NH2] (for hSSTR5; PerkinElmer Life Science) in 50 mM HEPES, 0.2% BSA, 0.1 mM MgCl2, pH 7.5.
(§4) The incubations were terminated by rapid filtration through GF/C glass microfiber filter plates (pre-wet with 0.3% polyethyleneimine and 0.1 % BSA) using a 96-well cell harvester (Brandel). Plates were washed six times with 1 mL/well aliquots of ice-cold buffer containing 50 mM Tris buffer, pH 7.7. Specific binding was defined as the total radioligand bound minus the bound in the presence of 1000 nM SRIF-14.

hSSTR2 [1] = target: T2, hSSTR2 (Homo sapiens, UniProt P30874); test: Somatostatin receptor radioligand binding assay (hSSTR2);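 note: radioligand displacement on membranes of CHO-K1 cells stably transfected with human SSTR2, specific binding taken as total minus binding left with 1000 nM SRIF-14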
T2 construct: host or cells: 'Cells expressing hSSTR2'

hSSTR5 = target: T3, hSSTR5 (Homo sapiens, UniProt P35346); test: Somatostatin receptor radioligand binding assay (hSSTR5); details: CHO-K1 cell membranes; 0.05 nM [125I-Tyr]-[DPhe-cyclo(Cys-Tyr-DTrp-Lys-Val-Cys)-Thr-NH2]; 60 minutes at 25°C; read-out: hSSTR5 Ki (nM) ± SEM
T3 construct: expressed in transfected cells; host or cells: CHO-K1 (ATCC), pcDNA3.1, G418-selected clonal line; membranes
Procedure: as §1, §2, §3, §4

hSSTR2 [2] = target: T2, hSSTR2; test: Intracellular calcium mobilization assay (FLIPR Calcium 4), hSSTR2; assay type: cell-based;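 note: agonist activity measured in cells expressing hSSTR2, seeded in 384-well plates, loaded with Calcium 4 dye, read-out as rise in intracellular calcium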
hDRD2 [3] = target: T4, hDRD2 (Homo sapiens, UniProt P14416); test: cell-based; set-up: host or cells: 'Cells expressing hDRD2'; details: for Emax: read-out: hDRD2 %Emax ± SEM
Procedure: The ability of select compounds according to the present invention to activate hSSTR2 and hDRD2 was determined by the intracellular calcium mobilization assay using FLIPR Calcium 4 assay kit (Molecular Devices).
Cells expressing hSSTR2 or hDRD2 were plated in 384-well microplates in tissue culture media and incubated for 16-24 hours at 37°C in a humidified atmosphere with 5% CO2. Medium was replaced by loading buffer containing Hank's buffered saline, 20 mM HEPES, 2.5 mM probenecid and Calcium 4 dye, and the plates were incubated at 37°C for 60 minutes.

hDRD2 [4] = target: T4, hDRD2; test: biochemical; assay type: binding; set-up: expressed in transfected cells; host or cells: CHO-K1, pcDNA3.1/GS, zeocin-selected clonal line; membranes
[5] = CHO-K1 cell membranes, 0.05 nM [125I-Tyr11]-SRIF-14, 60 minutes at 25°C, read-out: hSSTR1 Ki (nM) ± SEM
[6] = CHO-K1 cell membranes, 0.05 nM [125I-Tyr]-seglitide, 60 minutes at 25°C, read-out: hSSTR2 Ki (nM) ± SEM
[7] = CHO-K1 cell membranes, […] [3H]-spiperone, 60 minutes at 25°C, read-out: hDRD2 Ki (nM) ± SEM
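Throughout, for Emax: agonist activity at human DRD2 in DRD2-expressing cells, read as intracellular calcium mobilization with a FLIPR Calcium 4 fluorescent dye.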

T4 sequence (P14416 whole entry): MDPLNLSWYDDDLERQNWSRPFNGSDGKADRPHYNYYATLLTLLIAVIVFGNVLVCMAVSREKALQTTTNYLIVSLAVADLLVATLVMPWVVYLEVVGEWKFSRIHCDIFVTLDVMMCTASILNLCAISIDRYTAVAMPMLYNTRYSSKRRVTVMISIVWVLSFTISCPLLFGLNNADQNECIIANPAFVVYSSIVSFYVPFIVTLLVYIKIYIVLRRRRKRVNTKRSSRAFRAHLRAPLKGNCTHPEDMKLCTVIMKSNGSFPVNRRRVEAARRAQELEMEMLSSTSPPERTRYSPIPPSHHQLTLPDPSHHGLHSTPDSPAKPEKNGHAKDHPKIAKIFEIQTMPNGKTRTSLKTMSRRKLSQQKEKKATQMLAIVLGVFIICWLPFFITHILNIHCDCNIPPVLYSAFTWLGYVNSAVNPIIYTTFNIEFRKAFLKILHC
T1 sequence (P30872 whole entry): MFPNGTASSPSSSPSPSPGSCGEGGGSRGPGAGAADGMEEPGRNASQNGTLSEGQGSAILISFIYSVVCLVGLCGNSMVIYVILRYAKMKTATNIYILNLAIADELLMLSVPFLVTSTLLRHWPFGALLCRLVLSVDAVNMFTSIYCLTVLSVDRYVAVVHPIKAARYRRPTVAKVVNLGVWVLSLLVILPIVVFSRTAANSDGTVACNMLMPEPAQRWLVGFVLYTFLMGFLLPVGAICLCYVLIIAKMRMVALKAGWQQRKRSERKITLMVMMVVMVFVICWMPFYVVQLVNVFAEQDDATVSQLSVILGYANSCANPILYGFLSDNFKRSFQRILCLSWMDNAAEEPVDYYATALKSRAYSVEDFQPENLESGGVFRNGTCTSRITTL
T3 sequence (P35346 whole entry): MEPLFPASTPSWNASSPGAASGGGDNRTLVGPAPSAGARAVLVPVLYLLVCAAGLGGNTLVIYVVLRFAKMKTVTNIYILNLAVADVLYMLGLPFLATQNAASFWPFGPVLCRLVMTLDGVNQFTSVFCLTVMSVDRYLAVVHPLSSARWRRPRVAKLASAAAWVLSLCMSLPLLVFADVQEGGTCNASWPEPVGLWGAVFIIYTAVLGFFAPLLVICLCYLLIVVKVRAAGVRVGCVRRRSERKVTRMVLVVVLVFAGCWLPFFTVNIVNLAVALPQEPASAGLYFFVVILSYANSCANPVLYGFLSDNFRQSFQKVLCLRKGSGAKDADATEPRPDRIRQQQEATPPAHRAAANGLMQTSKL
T2 sequence (P30874 whole entry): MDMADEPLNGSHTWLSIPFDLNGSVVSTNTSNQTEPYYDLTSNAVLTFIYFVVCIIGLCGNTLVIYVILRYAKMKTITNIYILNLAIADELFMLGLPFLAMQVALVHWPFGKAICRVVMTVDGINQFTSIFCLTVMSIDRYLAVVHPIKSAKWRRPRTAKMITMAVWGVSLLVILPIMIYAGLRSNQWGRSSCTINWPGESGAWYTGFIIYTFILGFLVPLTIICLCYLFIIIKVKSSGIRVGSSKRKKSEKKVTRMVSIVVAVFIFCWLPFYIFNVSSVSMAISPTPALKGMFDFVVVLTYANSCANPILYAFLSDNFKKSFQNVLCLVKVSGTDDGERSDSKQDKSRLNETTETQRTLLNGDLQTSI

Row | Compound | Ki (hSSTR1) [nM] | Ki (hSSTR2 [1]) [nM] | Ki (hSSTR5) [nM] | EC50 (hSSTR2 [2]) [nM] | EC50 (hDRD2 [3]) [nM] | Emax (hDRD2 [3]) [%] | Ki (hDRD2 [4]) [nM] | improvement in EC50 over Reference Compound A (hSSTR2 [2]; p value (Student's t-test, one-tailed) < 0.05, receptor not named) | Ki (hSSTR1; [5]) [nM] | Ki (hSSTR2 [1]; [6]) [nM] | Ki (hDRD2 [4]; [7]) [nM] | improvement in %Emax over Reference Compound C (hSSTR2 [2]; receptor not named) | EC50 (hSSTR2 [2]; Table IV, cells expressing hSSTR2, read-out: hSSTR2 EC50 (nM) ± SEM) [nM]
1 | C[C@@H](O)[C@@H]1NC(=O)[C@H](CCCCN)NC(=O)[C@@H](Cc2c[nH]c3ccccc23)NC(=O)[C@H](Cc2ccncc2)NC(=O)[C@H](Cc2ccccc2)NC(=O)[C@H](CCCNC(=N)N)NC(=O)[C@H](NC[C@H](CCCCNC(=O)C[S+]([O-])C[C@@H]2C[C@@H]3c4cccc5[nH]cc(c45)C[C@H]3N(C)C2)NC(=O)C[S+]([O-])C[C@@H]2C[C@@H]3c4cccc5[nH]cc(c45)C[C@H]3N(C)C2)CCCCNC(=O)[C@H](Cc2ccccc2)NC1=O (stereo partly drawn) [Compound 17, Dop1(SO)-Lys[Dop1(SO)]-psi(CH2NH)-cyclo(DLys-Arg-Phe-4Pal-DTrp-Lys-Thr-Phe)] | 91.4 | 0.08 ± 0.05 | 0.86 | 10.3 ± 2 | 10.2 ± 2.2 | 96.9 ± 1.2 | 67.6 ± 18.4 | – | – | – | – | – | –
2 | C[C@@H](O)[C@@H]1NC(=O)[C@H](CCCCN)NC(=O)[C@@H](Cc2c[nH]c3ccccc23)NC(=O)[C@H](Cc2ccncc2)NC(=O)[C@H](Cc2ccccc2)NC(=O)[C@H](CCCNC(=N)N)NC(=O)[C@H](N(CCSC[C@@H]2C[C@@H]3c4cccc5[nH]cc(c45)C[C@H]3N(C)C2)CCSC[C@@H]2C[C@@H]3c4cccc5[nH]cc(c45)C[C@H]3N(C)C2)CCCCNC(=O)[C@H](Cc2ccccc2)NC1=O [Compound 29, bis[Dop1-psi(CH2N)]-cyclo(DLys-Arg-Phe-4Pal-DTrp-Lys-Thr-Phe)] (RF[4Pal][dW]KTF; linker N-C via X1) | 26.7 | 0.14 ± 0.02 | 2.37 | 12.1 ± 0.7 | 254 ± 111 | 89 ± 4.5 | 135 ± 66.1 | statistically significant improvement in EC50 | – | – | – | – | –
3 | C[C@@H](O)[C@@H]1NC(=O)[C@H](CCCCN)NC(=O)[C@@H](Cc2c[nH]c3ccccc23)NC(=O)[C@H](Cc2ccccc2)NC(=O)[C@H](Cc2ccccc2)NC(=O)[C@H](CCCNC(=N)N)NC(=O)[C@H](NCC[S+]([O-])C[C@@H]2C[C@@H]3c4cccc5[nH]cc(c45)C[C@H]3N(C)C2)CCCCNC(=O)[C@H](Cc2ccc(F)cc2)NC1=O (stereo partly drawn) [Compound 14, Dop1(SO)-psi(CH2NH)-cyclo(DLys-Arg-Phe-Phe-DTrp-Lys-Thr-4FPhe)] | 6 | 0.05 ± 0.01 | 0.36 | 1.3 ± 0.1 | 8.7 ± 1.7 | 103 ± 2.3 | 76.5 ± 13.9 | – | – | – | – | – | –
4 | C[C@@H](O)[C@@H]1NC(=O)[C@H](CCCCN)NC(=O)[C@@H](Cc2c[nH]c3ccccc23)NC(=O)[C@H](Cc2ccncc2)NC(=O)[C@H](Cc2ccccc2)NC(=O)[C@H](CCCNC(=N)N)NC(=O)[C@H](NC[C@H](Cc2ccc(O)cc2)NC(=O)C[S+]([O-])C[C@@H]2C[C@@H]3c4cccc5[nH]cc(c45)C[C@H]3N(C)C2)CCCCNC(=O)[C@H](Cc2ccccc2)NC1=O (stereo partly drawn) [Compound 15, Dop1(SO)-Tyr-psi(CH2NH)-cyclo(DLys-Arg-Phe-4Pal-DTrp-Lys-Thr-Phe)] | 64.4 | 0.02 ± 0.01 | 0.08 | 1.6 ± 0.3 | 7.4 ± 0.4 | 94.6 ± 0.8 | 149 ± 11.3 | – | – | – | – | – | –
5 | C[C@@H](O)[C@@H]1NC(=O)[C@H](CCCCN)NC(=O)[C@@H](Cc2c[nH]c3ccccc23)NC(=O)[C@H](Cc2ccncc2)NC(=O)[C@H](Cc2ccccc2)NC(=O)[C@H](CCCNC(=N)N)NC(=O)[C@H](NCC[S@+]([O-])C[C@@H]2C[C@@H]3c4cccc5[nH]cc(c45)C[C@H]3N(C)C2)CCCCNC(=O)[C@H](Cc2ccc(O)cc2)NC1=O [Compound 11, Dop1[(R)SO]-psi(CH2NH)-cyclo(DLys-Arg-Phe-4Pa1-DTrp-Lys-Thr-Tyr)] | 160 ± 22.5 | 0.05 | 0.09 | 2.4 ± 0.4 | 6.4 ± 0.9 | 106 ± 3.5 | 79.7 ± 21.4 | – | – | – | – | – | –
6 | C[C@@H](O)[C@@H]1NC(=O)[C@H](CCCCN)NC(=O)[C@@H](Cc2c[nH]c3ccccc23)NC(=O)[C@H](Cc2ccccc2)NC(=O)[C@H](Cc2ccccc2)NC(=O)[C@H](CCCNC(=N)N)NC(=O)[C@@H](NC[C@H](Cc2ccc(O)cc2)NC(=O)CSC[C@@H]2C[C@@H]3c4cccc5[nH]cc(c45)C[C@H]3N(C)C2)CCCCNC(=O)[C@H](Cc2ccccc2)NC1=O [Compound 31, Dop1-Tyr-psi(CH2NH)-cyclo(Lys-Arg-Phe-Phe-DTrp-Lys-Thr-Phe)] | – | 0.51 ± 0.1 | – | 13.3 ± 0.9 | 37.7 ± 4.6 | 94.8 ± 9.7 | 38.6 ± 28.6 | – | – | – | – | – | –
7 | C[C@@H](O)[C@@H]1NC(=O)[C@H](CCCCN)NC(=O)[C@@H](Cc2c[nH]c3ccccc23)NC(=O)[C@H](Cc2ccccc2)NC(=O)[C@H](Cc2ccccc2)NC(=O)[C@H](CCCNC(=N)N)NC(=O)[C@H](NC(=O)CSC[C@@H]2C[C@@H]3c4cccc5[nH]cc(c45)C[C@H]3N(C)C2)CCCCNC(=O)[C@H](Cc2ccc(F)cc2)NC1=O [Compound 34, Dop1-cyclo(DLys-Arg-Phe-Phe-DTrp-Lys-Thr-4FPhe)] (X2-[dK]RFF[dW]KT[Phe(4-F)]; lactam 1-C) | – | 4.55 ± 1.15 | – | 14.6 ± 5.7 | 72.7 | 77.9 | 299 | – | – | – | – | – | –
8 | C[C@@H](O)[C@@H]1NC(=O)[C@H](CCCCN)NC(=O)[C@@H](Cc2c[nH]c3ccccc23)NC(=O)[C@H](Cc2ccncc2)NC(=O)[C@H](Cc2ccccc2)NC(=O)[C@H](CCCNC(=N)N)NC(=O)[C@H](NCCS(=O)(=O)C[C@@H]2C[C@@H]3c4cccc5[nH]cc(c45)C[C@H]3N(C)C2)CCCCNC(=O)[C@H](Cc2ccc(O)cc2)NC1=O [Compound 20, Dop1(SO2)-psi(CH2NH)-cyclo(DLys-Arg-Phe-4Pal-DTrp-Lys-Thr-Tyr)] | – | – | 0.33 | – | – | 101.5 ± 0.6 | – | – | 689 | 0.02 ± 0.01 | 115 ± 41.3 | – | –
9 | C[C@@H](O)[C@@H]1NC(=O)[C@H](CCCCN)NC(=O)[C@@H](Cc2c[nH]c3ccccc23)NC(=O)[C@H](Cc2ccccc2)NC(=O)[C@H](Cc2ccccc2)NC(=O)[C@H](CCCNC(=N)N)NC(=O)[C@H](NCCSC[C@@H]2C[C@@H]3c4cccc5[nH]cc(c45)C[C@H]3N(C)C2)CCCCNC(=O)[C@H](Cc2cccc(F)c2)NC1=O [Compound 6C, Dop1-psi(CH2NH)-cyclo(DLys-Arg-Phe-Phe-DTrp-Lys-Thr-3FPhe)] | – | 0.15 ± 0.04 | – | 16.2 ± 5.9 | 60 ± 21.7 | 94.4 ± 5.1 | 30.3 ± 3.7 | – | – | – | – | – | –
10 | C[C@@H](O)[C@@H]1NC(=O)[C@H](CCCCN)NC(=O)[C@@H](Cc2c[nH]c3ccccc23)NC(=O)[C@H](Cc2ccccc2)NC(=O)[C@H](Cc2ccccc2)NC(=O)[C@H](CCCNC(=N)N)NC(=O)[C@H](NCCSC[C@@H]2C[C@@H]3c4cccc5[nH]cc(c45)C[C@H]3N(C)C2)CCCCNC(=O)[C@H](Cc2ccccc2)NC1=O [Compound 26, Dop1-psi(CH2NH)-cyclo(DLys-Arg-Phe-Phe-DTrp-Lys-Thr-Phe)] | 59 | 2.23 ± 0.97 | – | 9.8 ± 1.4 | 34.1 ± 6.8 | 93.7 ± 7.2 | 309 ± 56.6 | – | – | – | – | – | –
11 | C[C@@H](O)[C@@H]1NC(=O)[C@H](CCCCN)NC(=O)[C@@H](Cc2c[nH]c3ccccc23)NC(=O)[C@H](Cc2ccccc2)NC(=O)[C@H](Cc2ccccc2)NC(=O)[C@H](CCCNC(=N)N)NC(=O)[C@H](NC[C@H](CCCCNC(=O)CSC[C@@H]2C[C@@H]3c4cccc5[nH]cc(c45)C[C@H]3N(C)C2)NC(=O)CSC[C@@H]2C[C@@H]3c4cccc5[nH]cc(c45)C[C@H]3N(C)C2)CCCCNC(=O)[C@H](Cc2ccc(F)cc2)NC1=O [Compound 47, Dop1-Lys(Dop1)-psi(CH2NH)-cyclo(DLys-Arg-Phe-Phe-DTrp-Lys-Thr-4FPhe)] | – | – | – | – | – | 92.5 ± 0.8 | – | – | 29 | 0.58 ± 0.27 | 84.2 ± 7.5 | statistically significant improvement in %Emax | –
12 | C[C@@H](O)[C@@H]1NC(=O)[C@H](CCCCN)NC(=O)[C@@H](Cc2c[nH]c3ccccc23)NC(=O)[C@H](Cc2ccncc2)NC(=O)[C@H](Cc2ccccc2)NC(=O)[C@H](CCCNC(=N)N)NC(=O)[C@H](N(CCSC[C@@H]2C[C@@H]3c4cccc5[nH]cc(c45)C[C@H]3N(C)C2)CCSC[C@@H]2C[C@@H]3c4cccc5[nH]cc(c45)C[C@H]3N(C)C2)CCCCNC(=O)[C@H](Cc2ccc(O)cc2)NC1=O [Compound 35, bis[Dop1-psi(CH2N)]-cyclo(DLys-Arg-Phe-4Pal-DTrp-Lys-Thr-Tyr)] (RF[4Pal][dW]KTY; linker N-C via X1) | – | – | – | – | 97.4 ± 21.1 | 103 ± 1.4 | 345 ± 40.4 | – | 99.7 | 0.17 ± 0.06 | – | – | 19.4 ± 6.2
